The values that follow come from article PMC6934184, “Selective DNA-PKcs inhibition extends the therapeutic index of localized radiotherapy and chemotherapy” (The Journal of Clinical Investigation, 2019).

The target in this assay is T1, PDGFRA (PDGFR alpha) (Homo sapiens, UniProt P16234).
T1 construct: purchased Thermo Fisher Scientific (Life Technologies) SelectScreen
In words: SelectScreen Z'LYTE. The format is biochemical. The procedure, abridged:
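SelectScreen broad panel; activity (Z'LYTE, Adapta) plus binding formats. ATP: Km app for CSF1R Z'LYTE; 10 for CAMK1 Adapta. Readout = % per kinase.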

Structures are written as SMILES.

T1 sequence (P16234 24-1089): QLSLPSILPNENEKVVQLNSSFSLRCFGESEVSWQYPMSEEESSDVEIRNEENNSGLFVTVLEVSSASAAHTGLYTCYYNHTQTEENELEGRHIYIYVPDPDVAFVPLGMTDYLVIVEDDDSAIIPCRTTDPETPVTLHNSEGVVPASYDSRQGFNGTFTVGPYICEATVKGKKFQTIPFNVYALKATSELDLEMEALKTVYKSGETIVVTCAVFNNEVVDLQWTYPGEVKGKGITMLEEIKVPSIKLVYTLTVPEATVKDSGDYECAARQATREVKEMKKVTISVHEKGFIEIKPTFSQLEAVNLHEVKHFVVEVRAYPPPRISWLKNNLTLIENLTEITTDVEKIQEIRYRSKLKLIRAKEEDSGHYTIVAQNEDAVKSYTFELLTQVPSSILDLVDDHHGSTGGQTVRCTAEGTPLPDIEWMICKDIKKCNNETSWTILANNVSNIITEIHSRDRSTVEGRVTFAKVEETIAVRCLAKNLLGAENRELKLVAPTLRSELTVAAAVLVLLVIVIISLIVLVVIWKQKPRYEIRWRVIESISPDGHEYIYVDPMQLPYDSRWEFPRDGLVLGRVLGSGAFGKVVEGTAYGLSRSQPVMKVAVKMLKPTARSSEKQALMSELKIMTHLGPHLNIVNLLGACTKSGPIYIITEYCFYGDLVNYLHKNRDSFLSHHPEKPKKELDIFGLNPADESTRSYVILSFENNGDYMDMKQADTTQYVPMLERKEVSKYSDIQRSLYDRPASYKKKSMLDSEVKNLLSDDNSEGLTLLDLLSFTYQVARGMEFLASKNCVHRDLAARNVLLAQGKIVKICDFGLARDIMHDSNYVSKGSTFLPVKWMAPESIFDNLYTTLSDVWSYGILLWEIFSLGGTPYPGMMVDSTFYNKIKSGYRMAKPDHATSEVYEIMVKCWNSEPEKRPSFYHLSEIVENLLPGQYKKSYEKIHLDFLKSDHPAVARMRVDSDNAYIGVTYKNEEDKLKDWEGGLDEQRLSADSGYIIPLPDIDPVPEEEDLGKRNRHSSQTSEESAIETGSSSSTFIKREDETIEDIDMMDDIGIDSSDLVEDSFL

`CN(C(=O)CN1CCOCC1)c1ccc2sc3c(-c4cccc5c(=O)cc(N6CC7CCC(C6)O7)oc45)cccc3c2c1` [NU5455]: the inhibition at 1 µM was -6.8%.
